In patent publication US20120021939A1, “METHOD FOR PROFILING DRUG COMPOUNDS USING PROTEIN KINASE INHIBITORS” (priority 2009, published 2012):

Tested on: Renal Cell Carcinoma patients
Assay: Clinical efficacy of Bevacizumab treatment by body imaging (size reduction of the tumor)
Type: in vivo, human
Description: (§1) A study is performed to generate kinase inhibition profiles from tumor tissues derived from Renal Cell Carcinoma patients treated with the drug Bevacizumab. The tissue is derived from tumor resection performed before the Bevacizumab treatment is started. Bevacizumab is an antibody that blocks the triggering of the Vascular Endothelial Growth Factor Receptors (VEGFR), and thereby blocks the VEGFR signal transduction pathways.
The activity of the targeted VEGFR or VEGFR pathway is assessed in lysates prepared from Bevacizumab responding and non-responding patients. Clinical efficacy is determined using body imaging, thereby monitoring the size reduction of the tumor. In this assessment the lysates are profiled for activities of kinases on a peptide microarray comprising peptide substrates for protein tyrosine kinases. […] It is shown that peptides that are inhibited by these VEGFR kinase inhibitors, thus reporting VEGFR activity, are found in the microarray analyses of the Bevacizumab responding patients, and are not inhibited in the analyses of the patients not responding to Bevacizumab (Table 1). […] As these inhibition profiles are generated from tumor tissue derived from the patients before the treatment is started, these inhibition profiles are predictive for the clinical response of these patients. In patients with an active VEGFR pathway this drug is clinically active. In patients with no active VEGFR pathway no clinical effects are provided.
as §1, with “before” for “before the”, “thereby it” for “thereby”, “pathways. In patients with an active VEGFR pathway this drug is expected to be clinically active.” for “pathways.”
The activity of the alternative pathway is assessed in lysates prepared from Bevacizumab responding and non-responding patients. Clinical efficacy is determined using body imaging, thereby monitoring the size reduction of the tumor. In this assessment the lysates are profiled for activities of kinases on a peptide microarray comprising peptide substrates for protein tyrosine kinases. These kinase activity profiling tests are performed both in the presence and absence of an IGFR kinase inhibitor. […] It is shown that peptides that are inhibited by this IGFR kinase inhibitor, thus reporting IGFR activity, are found in the analyses of the Bevacizumab responding patients, and are not inhibited in the analyses of the patients not responding to Bevacizumab (Table 2). […] As these inhibition profiles are generated from tumor tissue derived from the patients before the treatment is started, these inhibition profiles are predictive for clinical response. Therefore, in patients with no active VEGFR pathway or with an alternative pathway allowing the tumor growth independent of the VEGFR signalling pathway, no clinical effect is obtained.

With “Bevacizumab: antibody that blocks the triggering of the Vascular Endothelial Growth Factor Receptors (VEGFR); binds VEGF” as the substance, how does the Clinical response (Example 1, Patient 1, Renal Cell Carcinoma) read?
Its Clinical response is “Responder”.

And the Clinical response (Example 1, Patient 2, Renal Cell Carcinoma)?
Its Clinical response is “Responder”.

And the Clinical response (Example 1, Patient 3, Renal Cell Carcinoma)?
Its Clinical response is “Non Responder”.

What about the Clinical response (Example 1, Patient 4, Renal Cell Carcinoma) of the same substance?
The Clinical response was “Non Responder”.

What about the Clinical response (Example 2, Patient 1, Renal Cell Carcinoma) of the same substance?
Its Clinical response is “Responder”.

What about the Clinical response (Example 2, Patient 2, Renal Cell Carcinoma) of the same substance?
Its Clinical response is “Responder”.

And the Clinical response (Example 2, Patient 3, Renal Cell Carcinoma)?
The Clinical response was “Non Responder”.

What about the Clinical response (Example 2, Patient 4, Renal Cell Carcinoma) of the same substance?
The Clinical response was “Non Responder”.
